In US20220105170A1 (priority 2019, published 2022):
Several values for one entry are separate records, joined by “and”; a condition that tells them apart may be missing. Equal values may be shown once.

Test system: peripheral blood lymphocytes collected from swine exposed to ASFV
Format: cell-based

56 (MRYTQIYKYPL) [compound 56]
Number of Spots: 23

64 (KVNNSMPLI) [compound 64]
Number of Spots: 32

66 (CTYGEGNGHY) [compound 66]
Number of Spots: 62

69 (KVNKSMPLI) [compound 69]
Number of Spots: 255

70 (KSMPLIVENSY) [compound 70]
Number of Spots: 35

84 (KVLGLLLGY) [compound 84]
Number of Spots: 16

85 (KSELSYWCTY) [compound 85]
Number of Spots: 20

241 (MVYNFNTLY) [compound 241]
Number of Spots: 16

275 (ATYNHRKILIY) [compound 275]
Number of Spots: 21

278 (MRIEIFWEL) [compound 278]
Number of Spots: 15

279 (KTDLLNNEF) [compound 279]
Number of Spots: 17

280 (SLSTLLLKY) [compound 280]
Number of Spots: 12

283 (YTHLNTWRL) [compound 283]
Number of Spots: 18

285 (QAMLSSIQYY) [compound 285]
Number of Spots: 14

297 (LRHNFTKAIHY) [compound 297]
Number of Spots: 16

309 (FTKAIHYFYKR) [compound 309]
Number of Spots: 12

321 (KRHKNHLY) [compound 321]
Number of Spots: 14

328 (KNHLYWRV) [compound 328]
Number of Spots: 13

329 (ASLDYGMNL) [compound 329]
Number of Spots: 12

335 (YLHETLFEL) [compound 335]
Number of Spots: 12

357 (YSYCFIKHF) [compound 357]
Number of Spots: 13

369 (KHTLQWLGLY) [compound 369]
Number of Spots: 16

386 (RTENYNLVCEY) [compound 386]
Number of Spots: 110

439 (ISPEKFIKI) [compound 439]
Number of Spots: 16

447 (NIIHTIYQSY) [compound 447]
Number of Spots: 331

449 (HTIYQSYSL) [compound 449]
Number of Spots: 19

458 (IVSEYINYLF) [compound 458]
Number of Spots: 16

467 (QAYALEYAM) [compound 467]
Number of Spots: 17

469 (HVVQRLGLY) [compound 469]
Number of Spots: 14

478 (STYTEIVKY) [compound 478]
Number of Spots: 33 and 19

523 (MGFSKPFMR) [compound 523]
Number of Spots: 12

534 (RYFTFKFAAHL) [compound 534]
Number of Spots: 12

557 (LIEFLTGFF) [compound 557]
Number of Spots: 16

565 (SKVMDMICLDY) [compound 565]
Number of Spots: 17

585 (VVDDVPSIDY) [compound 585]
Number of Spots: 12

607 (NINCFNYCI) [compound 607]
Number of Spots: 12

608 (INCFNYCILY) [compound 608]
Number of Spots: 13

625 (SVFMWICIY) [compound 625]
Number of Spots: 15

633 (ILEGVLGYF) [compound 633]
Number of Spots: 14

635 (IRGRSLNMLSL) [compound 635]
Number of Spots: 12

641 (GRSLNMLSLI) [compound 641]
Number of Spots: 16

647 (GADPTQKDY) [compound 647]
Number of Spots: 14

653 (WAVFTGNMEL) [compound 653]
Number of Spots: 16

703 (STVITTAYNF) [compound 703]
Number of Spots: 13

724 (HSDMYSVIFNI) [compound 724]
Number of Spots: 15

725 (SDMYSVIFNI) [compound 725]
Number of Spots: 15

726 (DMYSVIFNIKY) [compound 726]
Number of Spots: 14

743 (SKFCNHMFF) [compound 743]
Number of Spots: 16

744 (SKFCNHMFFR) [compound 744]
Number of Spots: 18

756 (FTDNLCFMM) [compound 756]
Number of Spots: 19

757 (CFMMQCKSIY) [compound 757]
Number of Spots: 16

769 (RLNAPNLKY) [compound 769]
Number of Spots: 13

784 (KSKQASISSI) [compound 784]
Number of Spots: 12

827 (NNVSYYWGL) [compound 827]
Number of Spots: 13

835 (AMFFTRSEW) [compound 835]
Number of Spots: 26

836 (RSEWASSNTF) [compound 836]
Number of Spots: 31

839 (ASSSMHSGM) [compound 839]
Number of Spots: 16

842 (SSMHSGMLY) [compound 842]
Number of Spots: 13 and 23

847 (YINFRLKTFY) [compound 847]
Number of Spots: 21

849 (FLKKNIYLY) [compound 849]
Number of Spots: 13

857 (AVNSTGLIGY) [compound 857]
Number of Spots: 17

860 (KARLCGLSY) [compound 860]
Number of Spots: 14 and 19

865 (RRVHASYPGY) [compound 865]
Number of Spots: 15

869 (GLAALVSPY) [compound 869]
Number of Spots: 13

872 (RVDMNRFFQF) [compound 872]
Number of Spots: 15 and 18

880 (SSIVFQHEM) [compound 880]
Number of Spots: 66

884 (ISAINHFNY) [compound 884]
Number of Spots: 19

888 (TMMHYPTFNW) [compound 888]
Number of Spots: 12

889 (MMHYPTFNW) [compound 889]
Number of Spots: 16

896 (SGLQSFYLY) [compound 896]
Number of Spots: 18 and 26

906 (WVGYNNVCYY) [compound 906]
Number of Spots: 12

908 (VGYNNVCYY) [compound 908]
Number of Spots: 16

921 (SVLLRDSGYY) [compound 921]
Number of Spots: 14

923 (VLLRDSGYY) [compound 923]
Number of Spots: 14 and 16

925 (KKQKHVSLL) [compound 925]
Number of Spots: 14

926 (KQKHVSLLY) [compound 926]
Number of Spots: 16

931 (SIDYWVSFNK) [compound 931]
Number of Spots: 12

954 (NNFTATCII) [compound 954]
Number of Spots: 15

960 (ETTLINCTYL) [compound 960]
Number of Spots: 13

962 (TTLINCTY) [compound 962]
Number of Spots: 12

963 (TLINCTYLTL) [compound 963]
Number of Spots: 19

971 (LTLSSNYFY) [compound 971]
Number of Spots: 12

977 (LSSNYFYTF) [compound 977]
Number of Spots: 18

1001 (FKLYYIPLSI) [compound 1001]
Number of Spots: 21

1006 (KRKKHVEEI) [compound 1006]
Number of Spots: 13

1019 (TQPLNPFPL) [compound 1019]
Number of Spots: 21

1020 (QTNCQLYFF) [compound 1020]
Number of Spots: 18

1024 (SQKLVQLFY) [compound 1024]
Number of Spots: 20

1033 (SVSPVFTSGY) [compound 1033]
Number of Spots: 16

1049 (SLEFNTFYAF) [compound 1049]
Number of Spots: 15

1065 (KTRGTRLFF) [compound 1065]
Number of Spots: 36

1080 (FRDHFIAL) [compound 1080]
Number of Spots: 16

1090 (ALFPQYISYY) [compound 1090]
Number of Spots: 106

1091 (LFPQYISYY) [compound 1091]
Number of Spots: 17

1106 (CSSCMVRTY) [compound 1106]
Number of Spots: 130

1107 (RTIPVAWDRF) [compound 1107]
Number of Spots: 18
